We go through one substance from patent US12702675B2, “Tetrahydrococannabinolic acid cocrystals” (Manoira Corporation, priority 2020, dated 2026).

Data set [1] is described as follows: Solid-state stability study, accelerated conditions (40° C. and 75% relative humidity, 14 days). The format is physicochemical. As to conditions: 40° C./75% RH, 2 weeks, sealed container. The method, then:
A study was carried out to examine the physical stability of the tetrahydrocannabinolic acid cocrystals with respect to solid form conversion or signs of decomposition over time under both ambient and accelerated conditions.

Data set [2] in a line: Solid-state stability study, ambient conditions in clear glass vial for 6 months. The format is physicochemical.

On to “1:1 tetrahydrocannabinolic acid ethyl maltol cocrystal [1:1 THCA ETHYL MALTOL]”, for which the Appearance result in data set [1] (50 mg solid) and in data set [2] (50 mg solid) was “No change” each time. The results for the XRPD analysis entry in data set [1] (form change by XRPD) and in data set [2] (form change by XRPD) were “slight signs of dissociation” and “No change”, respectively.
